Laboratory results as given in patent US20210332139A1, “MODULATION OF LEUKOCYTE ACTIVITY IN TREATMENT OF NEUROINFLAMMATORY DEGENERATIVE DISEASE” (Leuvas Therapeutics, priority 2013, published 2021).
Several values for one entry are separate records, joined by “and”; a condition that tells them apart may be missing. Equal values may be shown once.

What was measured:
Type in all cases: cell-based
mouse neutrophils [1] = test: Isoluminol chemiluminescence ROS assay, mouse neutrophils; details: mean+/−SD
Protocol: (§1) Isoluminol-based chemiluminescence assays were performed in HGCa in the presence of horseradish peroxidase (HRP) and isoluminol (both from Sigma-Aldrich) in a temperature-controlled Multilabel Count Victor X5 (Perkin Elmer). Assays were run in dark 96 well plates precoated with 250 μg/ml human fibrinogen in HGCa containing (final concentration): 100 μM isoluminol and 8 U/ml HRP. After addition of 1×10^5 human neutrophils or 7.5×10^5 mouse neutrophils, plates were left at 37° C. for 5-10 min and the reaction started by addition of the stimulus. Light emission was recorded every minute.
(§2) We used the chemotactic peptide fMLP as positive control. […] Data are mean+/−SD for three independent experiments.
Data are mean+/−SD counts per second.

human neutrophils [2] = test: Rapid adhesion of human neutrophils to fibrinogen and ICAM-1; details: mean+/−SD
Description: (§3) All data are expressed as the mean+/−SD of bound cells in 0.2 mm^2 from three independent experiments made in duplicate.

mouse neutrophils [3] = test: Rapid adhesion of mouse neutrophils to fibrinogen and ICAM-1; details: mean+/−SD
Description: as §3

human neutrophils [4] = test: Isoluminol chemiluminescence ROS assay, human neutrophils; details: human neutrophils on fibrinogen, mean+/−SD
Protocol: One of the mechanisms of neuronal damage by beta-amyloid in Alzheimer's disease is the generation of reactive oxygen species (ROS). We determined whether Aβ1-42 oligomers induce ROS production in neutrophils by using a chemiluminescence assay.
as §1, §2

LFA-1 = LFA-1 affinity state in human neutrophils (conformer-specific antibodies, cytofluorimetry); details: 20 μM, 10 s, mean fluorescence intensity, ctrl = 1
Description: Neutrophil arrest is rapidly triggered by chemokines or other chemoattractants and is mediated by the binding of LFA-1 integrin to its vascular ligand ICAM-1. Ligation of specific heterotrimeric GPCRs by chemokines induces integrins to undergo a dramatic transition from a bent low-affinity conformation to extended intermediate- and high-affinity conformations, which leads to opening of the ligand-binding pocket. We hypothesized that Aβ may trigger intermediate and/or high affinity state of LFA-1 integrin and studied the effect of Aβ1-42 oligomers on human LFA-1 affinity using KIM127 and 327A conformer-specific antibodies for intermediate- and high-affinity state respectively.
The cells were stimulated for 10 s with 0.5 μmol/L of CXCL12, 0.1 μM fMLP, 20 μM Aβ1-42, or 20 μM Aβ42-1 under stirring at 37° C. After rapid washing, cells were stained with FITC-conjugated secondary polyclonal antibody and analyzed by cytofluorimetric quantification. Data are mean fluorescence intensity +/−SD from three independent experiments.

human neutrophils [5] = test: Rapid human neutrophil adhesion to ICAM-1, inhibition by bocMLF and PTx; details: oligomeric Aβ, 2 minutes
Protocol: (§4) It is known that one of the receptors for Aβ is the receptor for fMLP, formylpeptide chemotactic receptor (FPR). To evaluate the contribution of this GPCR receptor on Aβ-dependent neutrophil adhesion, we inhibited its function using boc-MLF, a formyl-peptide chemotactic receptor antagonist. Human neutrophils were incubated for 2 minutes with buffer (control) or with oligomeric Aβ. 0.1 μM fMLP was used as a positive control. Values are expressed as the mean counts of bound cells in 0.2 mm^2 from three independent experiments in duplicate. Error bars represent SD. […] To exclude the possibility that rapid adhesion triggering was a consequence of a generic plasma membrane alteration due to the lipophilic nature of Aβ, we evaluated rapid adhesion in lymphocytes, which are known to lack fMLP receptors.

lymphocytes = test: Rapid adhesion in lymphocytes; details: lymphocytes lack fMLP receptors, result in words
Protocol: as §4

Abeta 1-42: soluble oligomeric amyloid-beta 1-42 peptide used as stimulus
ROS generation (chemiluminescence) (mouse neutrophils [1]; 1 min): 226 ± 34 counts per second
ROS generation (chemiluminescence) (mouse neutrophils [1]; 2 min): 103 ± 17 counts per second
Rapid adhesion to Fibrinogen (human neutrophils [2]; 1 μM): 108.0 ± 26.1 bound cells in 0.2 mm^2
Rapid adhesion to ICAM-1 (human neutrophils [2]; 1 μM): 156.5 ± 40.9 bound cells in 0.2 mm^2
Rapid adhesion to Fibrinogen (human neutrophils [2]; 5 μM): 200.9 ± 48.7 bound cells in 0.2 mm^2
Rapid adhesion to ICAM-1 (human neutrophils [2]; 5 μM): 184.0 ± 55.4 bound cells in 0.2 mm^2
Rapid adhesion to Fibrinogen (human neutrophils [2]; 10 μM): 285.2 ± 38.9 bound cells in 0.2 mm^2
Rapid adhesion to ICAM-1 (human neutrophils [2]; 10 μM): 229.2 ± 43.4 bound cells in 0.2 mm^2
Rapid adhesion to Fibrinogen (human neutrophils [2]; 20 μM): 449.1 ± 34.0 bound cells in 0.2 mm^2
Rapid adhesion to ICAM-1 (human neutrophils [2]; 20 μM): 281.0 ± 30.7 bound cells in 0.2 mm^2
Rapid adhesion to Fibrinogen (mouse neutrophils [3]; 5 μM): 37.13 ± 3.25 bound cells in 0.2 mm^2
Rapid adhesion to ICAM-1 (mouse neutrophils [3]; 5 μM): 149.9 ± 28 bound cells in 0.2 mm^2
Rapid adhesion to Fibrinogen (mouse neutrophils [3]; 10 μM): 44.75 ± 3.68 bound cells in 0.2 mm^2
Rapid adhesion to ICAM-1 (mouse neutrophils [3]; 10 μM): 201.9 ± 14.14 bound cells in 0.2 mm^2
Rapid adhesion to Fibrinogen (mouse neutrophils [3]; 20 μM): 88.75 ± 7.72 bound cells in 0.2 mm^2
Rapid adhesion to ICAM-1 (mouse neutrophils [3]; 20 μM): 285.3 ± 12.5 bound cells in 0.2 mm^2
Rapid adhesion to Fibrinogen (mouse neutrophils [3]; Abeta 1 μM): 8 ± 2.42 bound cells in 0.2 mm^2
Rapid adhesion to ICAM-1 (mouse neutrophils [3]; Abeta 1 μM): 27.42 ± 3.59 bound cells in 0.2 mm^2
ROS generation (chemiluminescence) (human neutrophils [4]; 1 min): 558 ± 112
ROS generation (chemiluminescence) (human neutrophils [4]; 2 min): 540 ± 106
ROS generation (chemiluminescence) (human neutrophils [4]; 3 min): 358 ± 132
ROS generation (chemiluminescence) (human neutrophils [4]; 4 min): 235 ± 61
ROS generation (chemiluminescence) (human neutrophils [4]; 5 min): 199 ± 76
327A (high-affinity state of LFA-1) (LFA-1): 3.29 ± 0.44
KIM127 (intermediate-affinity state of LFA-1) (LFA-1): 2.54 ± 0.12
Neutrophil adhesion to ICAM-1, stimulus alone (Ctrl, no inhibitor) (human neutrophils [5]): 490.4 ± 38.9 bound cells in 0.2 mm^2 and 475.5 ± 40.0 bound cells in 0.2 mm^2
Adhesion to fibrinogen or to ICAM-1 in lymphocytes (lymphocytes): did not induce adhesion
